Results as given in the supplement of paper PMC10307832.

Columns and labels:
Assay in all cases: relative viability (nuclei count vs DMSO), 5 days (fraction); higher = more cells survive
[1] = test system: PC-3 [JPC-3]
Method in brief: (§1)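 Medians of duplicate plates are given as relative viability. That measure is the nuclei count in treated wells divided by the count in vehicle wells. Counts were taken on 4× images of lung cancer cell lines in 1536-well plates, 5 days after pin-tool dosing the day after seeding with one drug alone or a fixed anchor-drug dose plus five library-drug doses (not always all listed) in √10 steps.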

[2] = test system: LXF-289
Method in brief: as §1

[3] = test system: HOP-62
Method in brief: as §1

[4] = test system: EMC-BAC-2
Method in brief: as §1

[5] = test system: SW 900
Method in brief: as §1

[6] = test system: NCI-H3122
Method in brief: as §1

[7] = test system: SK-MES-1
Method in brief: as §1

[8] = test system: NCI-H2170
Method in brief: as §1

[9] = test system: NCI-H596
Method in brief: as §1

[10] = test system: A-427
Method in brief: as §1

[11] = test system: NCI-H322M
Method in brief: as §1

[12] = test system: NCI-H1792
Method in brief: as §1

[13] = test system: NCI-H2009
Method in brief: as §1

[14] = test system: NCI-H2228
Method in brief: as §1

[15] = test system: LK-2
Method in brief: as §1

[16] = test system: SW 1573
Method in brief: as §1

[17] = test system: ABC-1
Method in brief: as §1

[18] = test system: NCI-H1944
Method in brief: as §1

[19] = test system: NCI-H522
Method in brief: as §1

[20] = test system: HARA
Method in brief: as §1

[21] = test system: NCI-H1993
Method in brief: as §1

[22] = test system: NCI-H727
Method in brief: as §1

Structure (SMILES): O=c1cc(N2CCOCC2)oc2c(-c3cccc4c3sc3ccccc34)cccc12 + N=C(N)NC(=N)NCCc1ccccc1 [Phenformin] (partner 250 µM)
- relative viability ([1]; first compound 0.01 µM): 0.467
- relative viability ([1]; first compound 0.03162 µM): 0.476
- relative viability ([1]; first compound 0.1 µM): 0.441
- relative viability ([1]; first compound 0.3162 µM): 0.496
- relative viability ([1]; first compound 1 µM): 0.513
- relative viability ([2]; first compound 0.01 µM): 0.523
- relative viability ([2]; first compound 0.03162 µM): 0.55
- relative viability ([2]; first compound 0.1 µM): 0.457
- relative viability ([2]; first compound 0.3162 µM): 0.498
- relative viability ([2]; first compound 1 µM): 0.529
- relative viability ([3]; first compound 0.01 µM): 0.555
- relative viability ([3]; first compound 0.03162 µM): 0.735
- relative viability ([3]; first compound 0.1 µM): 0.671
- relative viability ([3]; first compound 0.3162 µM): 0.575
- relative viability ([3]; first compound 1 µM): 0.704
- relative viability ([4]; first compound 0.01 µM): 0.423
- relative viability ([4]; first compound 0.03162 µM): 0.57
- relative viability ([4]; first compound 0.1 µM): 0.55
- relative viability ([4]; first compound 0.3162 µM): 0.556
- relative viability ([4]; first compound 1 µM): 0.564
- relative viability ([5]; first compound 0.01 µM): 0.291
- relative viability ([5]; first compound 0.03162 µM): 0.635
- relative viability ([5]; first compound 0.1 µM): 0.485
- relative viability ([5]; first compound 0.3162 µM): 0.551
- relative viability ([5]; first compound 1 µM): 0.56
- relative viability ([6]; first compound 0.01 µM): 0.347
- relative viability ([6]; first compound 0.03162 µM): 0.374
- relative viability ([6]; first compound 0.1 µM): 0.38
- relative viability ([6]; first compound 0.3162 µM): 0.36
- relative viability ([6]; first compound 1 µM): 0.396
- relative viability ([7]; first compound 0.01 µM): 0.652
- relative viability ([7]; first compound 0.03162 µM): 0.688
- relative viability ([7]; first compound 0.1 µM): 0.688
- relative viability ([7]; first compound 0.3162 µM): 0.671
- relative viability ([7]; first compound 1 µM): 0.668
- relative viability ([8]; first compound 0.01 µM): 0.401
- relative viability ([8]; first compound 0.03162 µM): 0.422
- relative viability ([8]; first compound 0.1 µM): 0.462
- relative viability ([8]; first compound 0.3162 µM): 0.384
- relative viability ([8]; first compound 1 µM): 0.39
- relative viability ([9]; first compound 0.01 µM): 0.73
- relative viability ([9]; first compound 0.03162 µM): 0.837
- relative viability ([9]; first compound 0.1 µM): 0.717
- relative viability ([9]; first compound 0.3162 µM): 0.743
- relative viability ([9]; first compound 1 µM): 0.76
- relative viability ([10]; first compound 0.01 µM): 0.31
- relative viability ([10]; first compound 0.03162 µM): 0.294
- relative viability ([10]; first compound 0.1 µM): 0.315
- relative viability ([10]; first compound 0.3162 µM): 0.313
- relative viability ([10]; first compound 1 µM): 0.341
- relative viability ([11]; first compound 0.01 µM): 0.75
- relative viability ([11]; first compound 0.03162 µM): 0.781
- relative viability ([11]; first compound 0.1 µM): 0.395
- relative viability ([11]; first compound 0.3162 µM): 0.814
- relative viability ([11]; first compound 1 µM): 0.668
- relative viability ([12]; first compound 0.01 µM): 0.26
- relative viability ([12]; first compound 0.03162 µM): 0.202
- relative viability ([12]; first compound 0.1 µM): 0.213
- relative viability ([12]; first compound 0.3162 µM): 0.32
- relative viability ([12]; first compound 1 µM): 0.184
- relative viability ([13]; first compound 0.01 µM): 0.471
- relative viability ([13]; first compound 0.03162 µM): 0.504
- relative viability ([13]; first compound 0.1 µM): 0.487
- relative viability ([13]; first compound 0.3162 µM): 0.492
- relative viability ([13]; first compound 1 µM): 0.464
- relative viability ([14]; first compound 0.01 µM): 0.372
- relative viability ([14]; first compound 0.03162 µM): 0.391
- relative viability ([14]; first compound 0.1 µM): 0.262
- relative viability ([14]; first compound 0.3162 µM): 0.259
- relative viability ([14]; first compound 1 µM): 0.37
- relative viability ([15]; first compound 0.01 µM): 0.593
- relative viability ([15]; first compound 0.03162 µM): 0.404
- relative viability ([15]; first compound 0.1 µM): 0.573
- relative viability ([15]; first compound 0.3162 µM): 0.38
- relative viability ([15]; first compound 1 µM): 0.361
- relative viability ([16]; first compound 0.01 µM): 0.451
- relative viability ([16]; first compound 0.03162 µM): 0.395
- relative viability ([16]; first compound 0.1 µM): 0.426
- relative viability ([16]; first compound 0.3162 µM): 0.326
- relative viability ([16]; first compound 1 µM): 0.343
- relative viability ([17]; first compound 0.01 µM): 0.228
- relative viability ([17]; first compound 0.03162 µM): 0.258
- relative viability ([17]; first compound 0.1 µM): 0.225
- relative viability ([17]; first compound 0.3162 µM): 0.28
- relative viability ([17]; first compound 1 µM): 0.266
- relative viability ([18]; first compound 0.01 µM): 0.212
- relative viability ([18]; first compound 0.03162 µM): 0.208
- relative viability ([18]; first compound 0.1 µM): 0.213
- relative viability ([18]; first compound 0.3162 µM): 0.207
- relative viability ([18]; first compound 1 µM): 0.237
- relative viability ([19]; first compound 0.01 µM): 0.724
- relative viability ([19]; first compound 0.03162 µM): 0.662
- relative viability ([19]; first compound 0.1 µM): 0.572
- relative viability ([19]; first compound 0.3162 µM): 0.621
- relative viability ([19]; first compound 1 µM): 0.618
- relative viability ([20]; first compound 0.01 µM): 0.414
- relative viability ([20]; first compound 0.03162 µM): 0.472
- relative viability ([20]; first compound 0.1 µM): 0.416
- relative viability ([20]; first compound 0.3162 µM): 0.502
- relative viability ([20]; first compound 1 µM): 0.482
- relative viability ([21]; first compound 0.01 µM): 0.61
- relative viability ([21]; first compound 0.03162 µM): 0.508
- relative viability ([21]; first compound 0.1 µM): 0.506
- relative viability ([21]; first compound 0.3162 µM): 0.483
- relative viability ([21]; first compound 1 µM): 0.556
- relative viability ([22]; first compound 0.01 µM): 0.645
- relative viability ([22]; first compound 0.03162 µM): 0.546
- relative viability ([22]; first compound 0.1 µM): 0.475
- relative viability ([22]; first compound 0.3162 µM): 0.641
- relative viability ([22]; first compound 1 µM): 0.581
